The CheMixHub viscosity set
Values joined by “and” are separate entries in the source; they are usually repeats but may differ in a detail not shown here. Identical values can stand only once.

CC(C)CN
Settings	viscosity [mPa·s]
298.15 K, 101 kPa	0.563

CC(C)Cc1ccccc1
viscosity [mPa·s]
Settings	293.15 K	303.15 K	313.15 K	323.15 K
101 kPa	–	0.899	0.771	–
102 kPa	1.02	0.883	0.769	0.68

CC(O)C(=O)[O-].CN(C)C(=N)[NH+](C)C
101 kPa
Settings	viscosity [mPa·s]
303.15 K	13700
308.15 K	7300
313.15 K	3960
318.15 K	2260
323.15 K	1370

CC=CC(=O)OCC
101 kPa
Settings	viscosity [mPa·s]
293.15 K	0.8184
298.15 K	0.7576
303.15 K	0.7053
313.15 K	0.6154
323.15 K	0.5471

CCC(C)CC
101.33 kPa
Settings	viscosity [mPa·s]
298 K	0.288
298.15 K	0.2909

CCCCCCCC/C=C\CCCCCCCC(=O)O
101 kPa
Settings	viscosity [mPa·s]
298.15 K	35.41
323.15 K	14.38

CCCC[N+]1(C)CCCC1.O=S(=O)([N-]S(=O)(=O)C(F)(F)F)C(F)(F)F
viscosity
Settings	293.15 K	295.2 K	298.15 K	303.15 K	308.15 K	313.15 K	318.15 K
100 kPa	97.99 mPa·s and 90.17 mPa·s	–	74.9 mPa·s and 70.12 mPa·s	61.58 mPa·s and 56.19 mPa·s	50.81 mPa·s and 45.8 mPa·s	37.99 mPa·s	34.58 mPa·s
101 kPa	86.03 mPa·s and 86.05 mPa·s	–	68.14 mPa·s and 68.16 mPa·s and 70.5 mPa·s	54.03 mPa·s and 54.05 mPa·s	44.37 mPa·s and 44.38 mPa·s	42 mPa·s and 35.75 mPa·s and 35.76 mPa·s	29.71 mPa·s and 29.72 mPa·s
101.3 kPa	–	80 mPa·s	–	–	–	–	–

CCC[NH3+].O=[N+]([O-])[O-]
Settings	viscosity [mPa·s]
298 K, 101 kPa	72.61

CCOS(=O)(=O)[O-].CC[n+]1ccn(C)c1
viscosity
Settings	298.15 K	303.15 K	308.15 K	313.15 K	318.15 K	323.15 K
100 kPa	96.87 mPa·s and 95.9 mPa·s	76.51 mPa·s and 75.7 mPa·s	61.6 mPa·s	61.6 mPa·s	50.5 mPa·s	35.03 mPa·s
101 kPa	95.9 mPa·s and 95.5 mPa·s	75.63 mPa·s and 75.4 mPa·s	–	49.45 mPa·s	–	34.24 mPa·s

CC[n+]1ccccc1.O=S(=O)([O-])C(F)(F)F
101 kPa
Settings	viscosity [mPa·s]
293.15 K	75.2
298.15 K	60.58
303.15 K	48.77
313.15 K	33.78
323.15 K	24.47

CN(c1ccccc1)c1ccccc1
101 kPa
Settings	viscosity
293.15 K	7.25 mPa·s
293.25 K	7.22 mPa·s
303.15 K	5.13 mPa·s
313.15 K	3.84 mPa·s and 3.835 mPa·s

Cc1cc(C)cc(C)c1
Settings	viscosity
293.15 K, 101 kPa	0.692 mPa·s and 0.721 mPa·s
293.15 K, 101.33 kPa	0.692 mPa·s
293.15 K, 102 kPa	0.699 mPa·s
295.01 K, 101.33 kPa	0.6861 mPa·s
298.15 K, 101 kPa	0.6025 mPa·s and 0.6518 mPa·s
298.15 K, 101.3 kPa	0.656 mPa·s and 0.671 mPa·s
298.15 K, 101.33 kPa	0.6 mPa·s and 0.658 mPa·s
298.38 K, 100 kPa	0.6595 mPa·s
298.38 K, 101.33 kPa	0.6595 mPa·s
302.82 K, 101.33 kPa	0.6227 mPa·s
303 K, 101 kPa	0.6123 mPa·s and 0.6124 mPa·s
303.15 K, 101 kPa	0.633 mPa·s and 0.612 mPa·s
303.15 K, 101.3 kPa	0.616 mPa·s and 0.624 mPa·s
303.15 K, 101.33 kPa	0.564 mPa·s
303.15 K, 102 kPa	0.606 mPa·s
307.35 K, 101.33 kPa	0.584 mPa·s
307.4 K, 101.33 kPa	0.309 mPa·s
307.78 K, 101.33 kPa	0.5879 mPa·s
308.15 K, 101.3 kPa	0.581 mPa·s and 0.589 mPa·s
308.15 K, 101.33 kPa	0.5482 mPa·s and 0.585 mPa·s
308.5 K, 101 kPa	0.597 mPa·s
312.69 K, 100 kPa	0.5561 mPa·s
312.69 K, 101.33 kPa	0.5561 mPa·s
313 K, 101 kPa	0.5482 mPa·s and 0.5481 mPa·s
313.15 K, 102 kPa	0.534 mPa·s
317.53 K, 101.33 kPa	0.5269 mPa·s
318.15 K, 101 kPa	0.3678 mPa·s and 0.52 mPa·s
322.26 K, 101.33 kPa	0.5017 mPa·s
323 K, 101 kPa	0.491 mPa·s and 0.4898 mPa·s
323.15 K, 101 kPa	0.495 mPa·s
323.15 K, 102 kPa	0.476 mPa·s
